{
  "source": "patent US7727933B2",
  "about": "“2-ethyl-4,6-dimethyl-phenyl-substituted spirocyclic tetramic acid derivatives” (Bayer CropScience AG, priority 2003, dated 2010)",
  "assay_type_in_all_cases": "in vivo",
  "key": {"Avena sativa": {"test_system": "Avena sativa", "assay": "Herbicidal post-emergence action (Example A)", "details": "320 g of a.i./ha, rated visually after about 3 weeks, 100% = plants have died", "description": "(§1) Seeds of monocotyledonous and dicotyledonous weed and crop plants are placed into sandy loam in wood fibre pots, covered with soil and cultivated in a greenhouse under good growth conditions. 2-3 weeks after sowing, the test plants are treated at the one-leaf stage. The test compounds, formulated as wettable powders (WP), are, in various dosages with a water application rate of 600 l/ha (converted), with 0.2% of wetting agent added, sprayed onto the green parts of the plants. After the test plants were kept in the greenhouse under optimum growth conditions for about 3 weeks, the effect of the preparations is rated visually in comparison to untreated controls (herbicidal effect in percent (%): 100% effect=the plants have died, 0% effect=like control plants)."}, "Setaria": {"test_system": "Setaria", "assay": "Herbicidal post-emergence action (Example A)", "details": "320 g of a.i./ha, rated visually after about 3 weeks, 100% = plants have died", "description": "as §1"}, "Lolium": {"test_system": "Lolium", "assay": "Herbicidal post-emergence action (Example A)", "details": "320 g of a.i./ha, rated visually after about 3 weeks, 100% = plants have died", "description": "as §1"}, "Summer barley": {"test_system": "Summer barley", "assay": "Herbicidal post-emergence action with use of safeners (Example B), crop plant compatibility", "details": "without safener, rated 3-4 weeks after treatment", "description": "Seeds of monocotyledonous and dicotyledonous weed and crop plants are placed into sandy loam in wood fibre pots or in plastic pots, covered with soil and cultivated in a greenhouse, during the vegetation period also outdoors outside of the greenhouse, under good growth conditions. 2-3 weeks after sowing, the test plants are treated at the one- to three-leaf stage. The test compounds, formulated as wettable powders (WP) or emulsifiable concentrates (EC) are, in various dosages with a water application rate of 300 l/ha (converted), with wetting agent (0.2 to 0.3%) added, sprayed onto the plants and the surface of the soil. 3-4 weeks after the treatment of the test plants, the effect of the preparations is rated visually in comparison to untreated controls (herbicidal effect in percent (%): 100% effect=the plants have died, 0% effect=like control plants). […]"}},
  "data": [
    {"smiles": "CCc1cc(C)cc(C)c1C1=C(OC(=O)COC)C2(CCC(OC)CC2)NC1=O", "note": "(centres unmarked) [Ex. I-b-1]", "values": [
      {"measurement": "herbicidal effect in percent, Avena sativa", "setting": "Avena sativa", "result": 100, "unit": "%"},
      {"measurement": "herbicidal effect in percent, Setaria", "setting": "Setaria", "result": 90, "unit": "%"},
      {"measurement": "herbicidal effect in percent, Lolium", "setting": "Lolium", "result": 100, "unit": "%"},
      {"measurement": "Summer barley observed (%)", "setting": "Summer barley; 12.5 g of a.i./ha", "result": 65, "unit": "%"},
      {"measurement": "Summer barley observed (%)", "setting": "Summer barley; 25 g of a.i./ha", "result": 93, "unit": "%"}
    ]}
  ]
}
